# Columns and labels:
# olfactory receptor OR1A1 = molecular target: T1, olfactory receptor OR1A1 (Homo sapiens, UniProt Q9P1Q5); assay: GLP-1 secretion by geraniol in enteroendocrine cell with OR1A1 knocked-down by siRNA; format: cell-based; conditions: 100 μM, 1 hour, OR1A1 knocked-down vs normal cell, FIG. 1B
# T1 construct: endogenous in cells; host or cells: human enteroendocrine cell (NCI-H716 named)
# T1 sequence (Q9P1Q5 1-309): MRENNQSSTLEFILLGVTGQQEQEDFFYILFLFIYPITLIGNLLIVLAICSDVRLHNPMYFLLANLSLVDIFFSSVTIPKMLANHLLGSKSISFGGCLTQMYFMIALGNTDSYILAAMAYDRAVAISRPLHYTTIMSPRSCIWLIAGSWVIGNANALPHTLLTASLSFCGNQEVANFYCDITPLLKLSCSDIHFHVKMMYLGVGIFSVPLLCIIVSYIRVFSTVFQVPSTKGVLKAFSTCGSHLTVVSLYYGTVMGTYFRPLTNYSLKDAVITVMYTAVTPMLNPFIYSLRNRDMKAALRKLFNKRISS
# Procedure: (§1) In a human enteroendocrine cell, in which an olfactory receptor is knocked-down by small-interference RNA (siRNA), an olfactory receptor signal transduction mechanism was identified.
# (§2) Human enteroendocrine cells in which olfactory receptors OR1A1 and OR1G1 were knocked-down by siRNAs, respectively, were cultured. SiRNAs for knocking-down OR1A1 (SEQ ID NO. 1 and 2, siRNA No. 1108058) and OR1G1 (SEQ ID NO. 3 and 4, siRNA No. 1108121) are available from Bioneer Co. (South Korea). Lipofectamine 2000 (available from Life technology, USA) was used to carry out intracellular transfection, based on the user manual.
# (§3) The human enteroendocrine cells in which olfactory receptors were knocked-down and a normal human enteroendocrine cell were each treated with geraniol at a concentration of 100 μM. Then, the cells were cultured for 1 hour at 37° C. at a concentration of 5% CO2. Thereafter, GLP-1 secretion was identified using ELISA.
# NCI-H716 cell [1] = assay: GLP-1 secretion in human enteroendocrine cell (ELISA); format: cell-based; conditions: 10, 20, 50, 100, 200, 500, 1000 and 2000 μM, 1 hour, FIG. 1A
# Procedure: A NCI-H716 cell, i.e., a human enteroendocrine cell, was obtained from Korean Cell Line Bank. The obtained cell was culture in RPMI 1640 medium until the number of obtained cells increased in a proper amount. Then. the cells were moved to a matrigel-coated plate, and then cultured in DMEM medium for 48 hours, for endocrine differentiation.
# Geraniol and nerol were purchased from Signa-Aldrich, USA.
# Human enteroendocrine cells were each treated with geraniol at a concentration of 10, 20, 50, 100, 200, 500, 1000, and 2000 μM, respectively, and then cells were cultured for 1 hour. A human enteroendocrine cell was treated with nerol, which is an isomer of geraniol, as a comparison group, i.e., a negative control group, under the same condition as in the treating with geraniol.
# GLP-1 secretion from the cell treated with geraniol and the cell treated with nerol were identified using enzyme-linked immunosorbent assay (ELISA). ELISA was carried out using a GLP-1 ELISA kit, available from Millipore, based on the user manual. The amount of GLP-1 secretion was measured using a fluoroskan ascent microplate reader (Thermo Electron Corp., Finland).
# [2] = tested on: human enteroendocrine cell; assay: Change of calcium concentration in human enteroendocrine cell; format: cell-based; conditions: 100 μM, treated after 1 minute elapsed from the start of the experiment, FIG. 2
# Text: FIG. 2 is a graph showing the change of calcium concentration in a human enteroendocrine cell after geraniol treatment.
# [3] = tested on: db/db mouse, type II diabetes mellitus model; assay: Plasma GLP-1 and insulin after gavage and glucose (multiplex assay); format: in vivo; conditions: oral administration, glucose 2 g/weight Kg, compared with PBS group
# Procedure: By using the same method in Example 2 (1), db/db mice of fasted state were each gavaged with geraniol, metformin, or saline. Then, each group were administered with glucose of 2 g/weight Kg. after 10 minutes, 20 minutes, 30 minutes, and 40 minutes elapsed, the amount of GLP-1 and insulin in plasma were measured by using multiplex assay (available from Bio-Rad, USA), based on the user manual, and Bio-Plex MAGPIX multiplex reader (available from Bio-Rad, USA).
# NCI-H716 cell [4] = assay: Cell viability MTT assay; format: cell-based, human; conditions: 10 μM to 1000 μM, 1 hour, compared with PBS, FIG. 8
# Procedure: In order to verify cytotoxicity of geraniol on a human enteroendocrine cell, MTT assay was carried out as follows. In detail, cell viability assay was carried out using 3-(4,5-dimethylthiazol-2-yl)-2,5-diphenyltetrazolium) bromide (MTT) (available from Invitrogen, Carlsbad, Calif., USA). An endocrine cell, a NCI-H716 cell, was treated with geraniol of different levels of concentration and 6 mM MTT for 1 hour. Dimethyl sulfoxide (DMSO) was added to the cells, and absorbance thereof was measured using Bio-Rad model 680 microplated reader (Bio-Rad, Hercules, Calif., USA) at 540 nm.
# [5] = tested on: human enteroendocrine cell; assay: Change amount of cAMP in human enteroendocrine cell (cAMP ELISA); format: cell-based; conditions: 100 μM geraniol, FIG. 3
# Procedure: In a human enteroendocrine cell, the result of geraniol treatment (100 μM) and forskolin treatment (10 μM), which is a cAMP activator, were compared with each other.
# olfactory receptor OR1G1 = molecular target: T2, olfactory receptor OR1G1 (Homo sapiens, UniProt P47890); assay: GLP-1 secretion by geraniol in enteroendocrine cell with OR1G1 knocked-down by siRNA; format: cell-based; conditions: 100 μM, 1 hour, OR1G1 knocked-down vs normal cell, FIG. 1C
# T2 construct: endogenous in cells; host or cells: human enteroendocrine cell (NCI-H716 named)
# T2 sequence (P47890 1-313): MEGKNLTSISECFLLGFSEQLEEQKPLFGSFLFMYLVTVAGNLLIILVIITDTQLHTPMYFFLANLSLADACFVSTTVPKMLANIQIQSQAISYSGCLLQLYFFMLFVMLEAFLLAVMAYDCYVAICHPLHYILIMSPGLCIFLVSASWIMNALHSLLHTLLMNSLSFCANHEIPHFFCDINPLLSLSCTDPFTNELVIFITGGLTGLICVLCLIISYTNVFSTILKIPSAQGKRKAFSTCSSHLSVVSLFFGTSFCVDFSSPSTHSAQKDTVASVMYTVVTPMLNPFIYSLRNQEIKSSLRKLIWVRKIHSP
# Procedure: as §1, §2, §3
# [6] = tested on: db/db mouse, type II diabetes mellitus model; assay: Oral glucose tolerance test after gavage; format: in vivo
# Procedure: Oral glucose tolerance test was performed on a db/db mouse (leptin receptor knocked-out mice) (35 g to 39 g), which is a type II diabetes mellitus model. A male 6 week-old db/db mouse was purchased from Daehan Biolink Co., Ltd (DBL, South Korea). A fasting blood sugar level of a db/db mouse of 18 hour-gastric emptying fasted state was measured. Then, the experimental group and the control group were each oral administered with geraniol and metformin, and saline via gavage. Geraniol was administered at 150 or 500 mg/weight Kg, and metformin was administered at 300 mg/weight Kg. Then, each group was administered with glucose of 5 g/weight Kg. Oral glucose tolerance test (OGTT) was performed after 10 minutes, 20 minutes, 40 minutes, 90 minutes, and 120 minutes elapsed.
# [7] = tested on: db/db mouse, type II diabetes mellitus model; assay: Oral glucose tolerance test with geraniol smelling (olfactory stimulation); format: in vivo
# Procedure: A male 6 week-old db/db mouse was purchased from Daehan Biolink Co., Ltd (DBL, South Korea). A fasting blood sugar level of a db/db mouse of 18 hour-gastric emptying fasted state was measured. Then, the experimental group was stimulated (smelling) with geraniol through olfaction. The control group was oral administered with saline and metformin of 300 mg/weight Kg via gavage. Then, each of the experimental group and the control group were administered with glucose of 2 g/weight Kg. After 10 minutes, 20 minutes, 40 minutes, 90 minutes, and 120 minutes elapsed, the amount of GLP-1 in plasma was verified by using multiplex assay (available from Bio-Rad, USA).
compound,measurement,setting,value
CC(C)=CCC/C(C)=C/CO [geraniol],GLP-1 secretion via stimulation of OR1A1,olfactory receptor OR1A1,"stimulates OR1A1, an olfactory receptor, promoting GLP-1 secretion"
same,GLP-1 secretion promoting effect,NCI-H716 cell [1],dose-dependently promotes GLP-1 secretion
same,time at which calcium concentration in the cell was the highest,[2],4 min
same,plasma GLP-1,"[3]; FIG. 6A, 6C",secretion inducing of GLP-1
same,plasma insulin,"[3]; FIG. 6B, 6D",additional insulin
same,"cytotoxicity (cell viability, MTT)",NCI-H716 cell [4],found not to have cytotoxicity
same,time after treatment at which concentration of cAMP in the cell was the highest,[5],30 min
same,GLP-1 secretion via stimulation of OR1G1,olfactory receptor OR1G1,"stimulates OR1G1, an olfactory receptor, promoting GLP-1 secretion"
same,hypoglycemic effect at oral glucose tolerance test,"[6]; gavage 150 or 500 mg/weight Kg, glucose 5 g/weight Kg, compared with saline group, FIG. 5A-5C",exhibited hypoglycemic effect
same,hypoglycemic effect compared with metformin,[6]; geraniol gavage 150 or 500 mg/weight Kg vs metformin 300 mg/weight Kg,comparable to metformin
same,blood sugar level,"[7]; geraniol smelling (olfactory stimulation), FIG. 9",lowered the blood sugar level
same,amount of GLP-1 in plasma,"[7]; geraniol smelling, 10 minutes after glucose 2 g/weight Kg, vs metformin 300 mg/weight Kg oral, FIG. 10",increased more than the case of metformin administration
"CC(C)=CCC/C(C)=C\CO [nerol, reference compound]",GLP-1 secretion promoting effect,NCI-H716 cell [1],had no GLP-1 secretion promotion effect
